The record followed here is US10239829B2, “Antagonists of the glucagon receptor” (Metabasis Therapeutics, Inc., priority 2007, dated 2019).

In one test the test system is db/db mice. Briefly: Glucose lowering in db/db mice. The class given is in vivo, mouse. The following applies: freely-feeding; for inhibition in vivo at 30 mg/kg / inhibition in vivo at 100 mg/kg: Mus musculus, oral gavage, 100% = normalization to lean db/+ mice; for Glucose lowering: vs vehicle-treated db/db mice. As for the experimental part: Purpose: To assess the effects of compounds of the invention on blood glucose levels in the db/db mouse, an animal model of type 2 diabetes.
Methods: Compounds were dissolved in polyethylene glycol-400 and administered by oral gavage to db/db mice in the freely-feeding state at doses of 30 and/or 100 mg/kg. Blood glucose levels were assessed in blood samples obtained by tail bleed at baseline (prior to drug administration) and at regular time intervals over 24 hours using a portable glucometer such as the OneTouch or HemoCue meters. The magnitude of blood glucose lowering elicited by the compounds of the invention was determined by comparison to those in db/db mice administered only the vehicle. The percentage glucose lowering was calculated by factoring in the blood glucose levels of vehicle-treated lean db/+(heterozygote) mice, with 100% representing the normalization of blood glucose levels from the hyperglycemic state (vehicle-treated db/db mice) to the normoglycemic state (vehicle-treated db/+ mice).

Test [1] relates to glucagon-challenged Beagle dogs. As to the kind of experiment: Glucose lowering in glucagon-challenged Beagle dogs. The class given is in vivo, dog. The following applies: Beagle dogs (n=3), oral gavage 38 mg/kg in PEG-400, glucagon 20 μg s.c. after 1.5 hours. As for the experimental part: Purpose: To assess the effects of compounds of the invention on blood glucose levels in glucagon-challenged Beagle dogs.
Methods: Beagle dogs (n=3) were treated with vehicle (polyethylenelglycol-400) by oral gavage. After 1.5 hours, glucagon (20 μg) was administered subcutaneously. Blood glucose levels were measured prior to glucagon administration and at 10-minute intervals thereafter for up to an hour. Blood samples for these determinations were obtained from a superficial ear vein and were measured using a OneTouch glucometer. After a 1-week washout, the animals were treated by oral gavage with the compound of Example 2.009 at a dose of 38 mg/kg (polyethylenelglycol-400 formulation). The glucagon challenge and blood sampling were then performed as before.

Where [2] appears, read: oral gavage in PEG-400, dose 30 mg/Kg.
Setting [3] is: oral gavage in PEG-400, dose 100 mg/Kg.

Structures are written as SMILES.

In the test with db/db mice, `Cc1cc(NC(=O)C(Cc2ccc(C(=O)NCCS(=O)(=O)O)cc2)c2ccc(/C=C/C(C)(C)C)cc2)ccc1-c1ccc(C(F)(F)F)cc1Cl` (centres unmarked) [Example 1.179] showed an inhibition in vivo at 30 mg/kg of 34%. Further, the “Glucose lowering” value with db/db mice (setting [2]) was 102 mg/dL.

In turn, `Cc1cc(Cl)ccc1-c1ccc(NC(=O)C(Cc2ccc(C(=O)NCCS(=O)(=O)O)cc2)c2ccc(C3=CCC(C(C)(C)C)CC3)cc2)cc1` (centres unmarked) [Example 1.269] gave an inhibition in vivo at 30 mg/kg with db/db mice of 42%. Further, in the test with db/db mice (setting [2]), the “Glucose lowering” value worked out at 124 mg/dL.

`CC(C)(C)COc1ccc(C(Cc2ccc(C(=O)NCCS(=O)(=O)O)cc2)C(=O)Nc2ccc(-c3ccc(Cl)cc3Cl)cc2)cc1.[Na+]` (centres unmarked) [Example 1.136]: in the test with db/db mice, the inhibition in vivo at 30 mg/kg was determined as 16%. The “Glucose lowering” value in the test on db/db mice (setting [2]) is reported as 47 mg/dL.

`CC(C)(C)/C=C/c1ccc(C(Cc2ccc(C(=O)NCCS(=O)(=O)[O-])cc2)C(=O)Nc2ccc(-c3ccc(C(F)(F)F)cc3Cl)cc2)cc1.[Na+]` (centres unmarked) [Example 1.135] displayed an inhibition in vivo at 100 mg/kg in the test with db/db mice of 41%. In the test on db/db mice (setting [3]), the “Glucose lowering” value came out at 131 mg/dL.

For the molecule `CC(C)(C)COc1ccc(C(Cc2ccc(C(=O)NCCS(=O)(=O)O)cc2)C(=O)Nc2ccc(-c3ccc(C(F)(F)F)cc3Cl)cc2)cc1` (centres unmarked) [Example 1.314], the inhibition in vivo at 30 mg/kg in the test on db/db mice is 40%. For the same molecule, the “Glucose lowering” value in the test with db/db mice (setting [2]) is listed as 95 mg/dL.

On to `Cc1cc(NC(=O)C(Cc2ccc(C(=O)NCCS(=O)(=O)O)cc2)c2ccc(OCC(C)(C)C)cc2)ccc1-c1ccc(C(F)(F)F)cc1C` (centres unmarked) [Example 1.311], for which the inhibition in vivo at 30 mg/kg in the test with db/db mice stood at 36%. For the same molecule, the “Glucose lowering” value with db/db mice (setting [2]) was 109 mg/dL.

Take `Cc1cc(C(F)(F)F)ccc1-c1ccc(NC(=O)C(Cc2ccc(C(=O)NCCS(=O)(=O)O)cc2)c2ccc(/C=C/C(C)(C)C)cc2)cc1Cl` (centres unmarked) [Example 1.173]: in the test on db/db mice, the inhibition in vivo at 30 mg/kg was determined as 50%. Further, the “Glucose lowering” value with db/db mice (setting [2]) stood at 172 mg/dL.

Regarding `CC(C)(C)C1CCC(C(Cc2ccc(C(=O)NCCS(=O)(=O)[O-])cc2)C(=O)Nc2ccc(-c3ccc(Cl)cc3Cl)cc2)CC1.[Na+]` (centres unmarked) [Example 1.138], 30 mg/kg produced 6% inhibition in vivo with db/db mice. In the test with db/db mice (setting [2]), the “Glucose lowering” value came to 19 mg/dL.

Take `CCC(c1ccc(C(=O)NCCS(=O)(=O)O)cc1)C(C(=O)Nc1ccc(-c2ccc(Cl)cc2Cl)cc1)c1ccc(/C=C/C(C)(C)C)cc1` (centres unmarked) [Example 1.315]: the inhibition in vivo at 30 mg/kg in the test with db/db mice was 57%. For the same molecule, the “Glucose lowering” value with db/db mice (setting [2]) is 172 mg/dL.

Take `Cc1cc(Cl)ccc1-c1ccc(NC(=O)C(Cc2ccc(C(=O)NCCS(=O)(=O)O)cc2)c2ccc(/C=C/C(C)(C)C)cc2)cc1Cl` (centres unmarked) [Example 1.359]: in the test on db/db mice, the inhibition in vivo at 100 mg/kg turned out to be 48%. The “Glucose lowering” value in the test with db/db mice (setting [3]) came to 150 mg/dL.

On to `CC(C)(C)/C=C/c1ccc(C(Cc2ccc(C(=O)NCCS(=O)(=O)O)cc2)C(=O)Nc2ccc(C3=Cc4ccccc4C3)cc2)cc1` (centres unmarked) [Example 1.321], for which 30 mg/kg produced 68% inhibition in vivo in the test with db/db mice. Also, the “Glucose lowering” value in the test with db/db mice (setting [2]) is on record as 161 mg/dL.

As to `CC(C)(C)/C=C/c1ccc(C(Cc2ccc(C(=O)NCCS(=O)(=O)[O-])cc2)C(=O)Nc2ccc(-c3ccc(Cl)cc3Cl)cc2)cc1.[Na+]` (centres unmarked) [Example 1.133], the inhibition in vivo at 30 mg/kg with db/db mice came to 57%. Moreover, in the test with db/db mice (setting [2]), the “Glucose lowering” value is on record as 157 mg/dL.

The molecule `Cc1cc(C(F)(F)F)ccc1-c1ccc(NC(=O)C(Cc2ccc(C(=O)NCCS(=O)(=O)O)cc2)c2ccc(/C=C/C(C)(C)C)cc2)cc1` (centres unmarked) [Example 1.320] showed an inhibition in vivo at 30 mg/kg with db/db mice of 39%. Also, the “Glucose lowering” value in the test on db/db mice (setting [2]) is listed as 121 mg/dL.

The molecule `CC(c1ccc(C(=O)NCCS(=O)(=O)[O-])cc1)C(C(=O)Nc1ccc(-c2ccc(Cl)cc2Cl)cc1)c1ccc(/C=C/C(C)(C)C)cc1.[Na+]` (centres unmarked) [Example 1.137] had an inhibition in vivo at 30 mg/kg with db/db mice of 53%. The “Glucose lowering” value in the test on db/db mice (setting [2]) turned out to be 159 mg/dL.

With `CC(C)(C)/C=C/c1ccc(C(Cc2ccc(C(=O)NCCS(=O)(=O)[O-])cc2)C(=O)Nc2ccc(-c3cc4ccccc4o3)cc2)cc1.[Na+]` (centres unmarked) [Example 1.052], the inhibition in vivo at 30 mg/kg with db/db mice amounted to 61%. Besides, the “Glucose lowering” value in the test with db/db mice (setting [2]) is listed as 147 mg/dL.

For the molecule `O=C(NCCS(=O)(=O)O)c1ccc(CC(C(=O)Nc2ccc(-c3cc4ccccc4o3)cc2Cl)c2ccc(OC(F)(F)F)cc2)cc1` (centres unmarked) [Example 1.155], the inhibition in vivo at 30 mg/kg in the test on db/db mice was determined as 49%. The “Glucose lowering” value in the test on db/db mice (setting [2]) is reported as 108 mg/dL.

Turning to `CC(C)(C)c1ccc(C(Cc2ccc(C(=O)NCCS(=O)(=O)[O-])cc2)c2cc(-c3cccc(-c4ccc(Cl)cc4)c3)on2)cc1.[Na+]` (centres unmarked) [Example 2.009], the “attenuation of the glucagon-induced glucose excursion” value in test [1] is given as “approximately 40%”.

As to `CC(C)(C)C1CC=C(c2ccc(C(Cc3ccc(C(=O)NCCS(=O)(=O)O)cc3)C(=O)Nc3ccc(-c4ccc(C(F)(F)F)cc4Cl)cc3)cc2)CC1` (centres unmarked) [Example 1.270], the inhibition in vivo at 30 mg/kg with db/db mice stood at 24%. In addition, in the test with db/db mice (setting [2]), the “Glucose lowering” value is recorded as 63 mg/dL.

By inhibition in vivo is commonly meant how much of the control response was suppressed. Low values mean little suppression, high ones strong suppression.
